Test results as given in patent US8546357B2, “Boron-containing small molecules for controlling ectoparasites” (priority 2011, dated 2013).

Key:
[1] = system: brown dog tick (Rhipicephalus sanguineus); assay: Residual efficacy against adult brown dog tick infestations on dogs, oral; format: in vivo; details: Table 6, oral capsule 25 mg/kg, Day 32
Protocol: (§1) Immediately following removal of D. variabilis ticks on Day 30, dogs were co-infested with approximately 50 adult, unfed brown dog ticks (R. sanguineus, approximately 50% male and 50% female) and approximately 100 adult, unfed cat fleas (C. felis, approximately 50% male and 50% female). Ticks and fleas were counted and removed on Day 32 (approximately 48 hours after infestation). GM percent efficacy of treatments against both tick species and fleas was calculated using the following formula: […]
(§2) The therapeutic (knockdown) and residual efficacy of 7, administered orally at a point dose of 35 mg/kg bodyweight, was evaluated against adult tick (Dermacentor variabilis and Rhipicephalus sanguineus) and adult cat flea (Ctenocephalides felis) infestations on dogs. Twelve (12) male and female beagle dogs were allocated to either an untreated, negative control group or 7 group (n=6 dogs per group). Dogs were infested with approximately 50 unfed, adult D. variabilis ticks on Days −1, 5, 12, 19, 28, 35 and 42. On Day 0, dogs were orally administered gelatin capsules containing Compound 8194 (50% technical active, 47% microcrystalline cellulose and 3% croscarmellose sodium, w/w) at a point dose of 35 mg/kg. D. variabilis tick counts and classification were conducted on Day 1 (thumb count, approximately 24 hours after treatment) and Days 2, 7, 14, 21, 30, 37 and 44 (approximately 48 hours after treatment). Following removal of D. variabilis ticks on Day 30, all dogs were co-infested with approximately 50 unfed, adult brown dog ticks (R. sanguineus) and approximately 100 unfed, adult cat fleas (C. felis). Brown dog tick and cat flea counts were conducted on Day 32 (approximately 48 hours after infestation). GM percent efficacy of treatments against both tick species and fleas was calculated using the following formula: […]
(§3) The therapeutic (knockdown) and residual efficacy of S-enantiomer, 9, administered orally at a point dose of 25 mg/kg bodyweight, was evaluated against adult tick (Dermacentor variabilis and Rhipicephalus sanguineus) and adult cat flea (Ctenocephalides felis) infestations on dogs. Twelve (12) male and female beagle dogs were allocated to either an untreated, negative control group or 9 group (n=6 dogs per group). Dogs were infested with approximately 50 unfed, adult D. variabilis ticks on Days −1, 5, 12, 19, and 28. On Day 0, dogs were orally administered gelatin capsules containing 9 (50% technical active, 47% microcrystalline cellulose and 3% croscarmellose sodium, w/w) at a point dose of 25 mg/kg. D. variabilis tick counts and classification were conducted on Day 1 (thumb count, approximately 24 hours after treatment) and Days 2, 7, 14, 21 and 30 (approximately 48 hours after treatment). Following removal of D. variabilis ticks on Day 30, all dogs were co-infested with approximately 50 unfed, adult brown dog ticks (R. sanguineus) and approximately 100 unfed, adult cat fleas (C. felis). Brown dog tick and cat flea counts were conducted on Day 32 (approximately 48 hours after infestation). GM percent efficacy of treatments against both tick species and fleas was calculated using the following formula: […]

[2] = system: Lone star tick larvae (Amblyomma americanum); assay: Larval immersion microassay against larval-stage Lone star ticks; details: Amblyomma americanum, 24 h, read-out: activity (percent larval mortality)
Protocol: The larval immersion microassay was conducted as described in detail in White, et al., J. Med. Entomol. 41: 1034-1042 (2004). Compounds of the invention were formulated in dimethylsulfoxide (DMSO) to prepare a stock solution at a concentration of at least 10 mM. Using 96-well microtiter plates, an aliquot of the mM sample was subsequently diluted in a water-based solution containing 1% ethanol and 0.2% Triton X-100, to obtain the desired concentration (typically 0.3 mM or lower) of compound in a volume of 0.1 ml (minimum n=3 replicates per compound or concentration). Approximately 30-50 Lone star tick larvae (Amblyomma americanum) were submerged into each well containing compounds. After a 30 minute immersion period, larvae were removed with a wide-bore pipette tip in 0.05 ml of fluid, dispensed into a commercial paper tissue biopsy bag which was sealed at the top with a plastic dialysis clip, inverted and allowed to air dry for 60 minutes. Bags containing larvae were then incubated at approximately 27 degrees Celsius and >90% relative humidity. After 24 hours, bags were opened, live and dead larvae were counted and percent larval mortality was calculated.
7 and 8 contain one chiral center each, and are racemic mixtures comprised of approximately 50% R- and 50% S-enantiomer. In vitro and surrogate animal (rat) studies were conducted to evaluate the biological activity of the R- and S-enantiomers of 7 and 8. For the in vitro study, larvae of the Lone star tick (Amblyomma americanum) were exposed to 9, 10, 11 and 12 using the larval immersion microassay at a concentration of no greater than 0.3 mM. Following exposure, larvae were removed, transferred to a tissue biopsy bag and incubated at approximately 27 degrees Celsius and >90% relative humidity. After 24 hours, biopsy bags were opened and the numbers of live and dead larvae were determined

[3] = Tolerability of oral treatment in dogs; format: in vivo, dog; details: Example 10, oral capsule 25 mg/kg
Protocol: (§4) The therapeutic (knockdown) and residual efficacy of 5, administered orally at a point dose of 25 mg/kg bodyweight, was evaluated against adult American dog tick (D. variabilis) infestations on dogs. Six beagle dogs were allocated to one of two treatment groups, an untreated control group (n=4 dogs) or 5 group (n=2 dogs). On Day 0, two dogs were treated with 5 via oral gavage (25 mg/ml 5, dissolved in a solution of 55% polyethylene glycol-300, 35% propylene glycol and 10% water) at a point dose of approximately 25 mg/kg. Twenty-four (24) hours before treatment (Day −1), all dogs were infested with approximately 50 unfed, adult-stage American dog ticks (D. variabilis; approximately 50% male and 50% female). On Day 1, approximately 24 hours after treatment, thumb counts were conducted to determine the number and life-status classification of ticks present on all dogs (normal, moribund or dead; attached or detached). Ticks were not removed during thumb counts. On Day 2, approximately 48 hours after treatment, all ticks were classified and removed from dogs. Dogs were re-infested with approximately 50 unfed, adult D. variabilis ticks on Days 5 and 12, with tick classification, counts and removal on Days 7 and 14 (approximately 48 hours after each infestation).
(§5) The therapeutic (knockdown) and residual efficacy of 7 and 8, each administered orally at a point dose of 25 mg/kg bodyweight, was evaluated against adult tick (Dermacentor variabilis and Rhipicephalus sanguineus) and adult cat flea (Ctenocephalides felis) infestations on dogs. Twelve (12) male and female beagle dogs were randomly allocated to one of three treatment groups, four (4) dogs per group: Untreated control; 7, 25 mg/kg; and 8, 25 mg/kg. On Day −1, all dogs were infested with approximately 50 unfed, adult D. variabilis ticks. On Day 0, dogs were orally administered gelatin capsules containing either 7 or 8 (50% technical active, 47% microcrystalline cellulose and 3% croscarmellose sodium, w/w). Ticks were counted and classified, but not removed, on all dogs on Day 1, approximately 24 hours after treatment. On Day 2, approximately 48 hours after treatment, ticks were counted, classified and removed. Dogs were re-infested with the same number of D. variabilis ticks on Days 5, 12, 19 and 28 and tick counts were conducted on Days 7, 14, 21 and 30.
The therapeutic (knockdown) and residual efficacy of 7, administered orally at a point dose of 35 mg/kg bodyweight, was evaluated against adult tick (Dermacentor variabilis and Rhipicephalus sanguineus) and adult cat flea (Ctenocephalides felis) infestations on dogs. Twelve (12) male and female beagle dogs were allocated to either an untreated, negative control group or 7 group (n=6 dogs per group). Dogs were infested with approximately 50 unfed, adult D. variabilis ticks on Days −1, 5, 12, 19, 28, 35 and 42. On Day 0, dogs were orally administered gelatin capsules containing Compound 8194 (50% technical active, 47% microcrystalline cellulose and 3% croscarmellose sodium, w/w) at a point dose of 35 mg/kg. […] GM percent efficacy of treatments against both tick species and fleas was calculated using the following formula: […]
The therapeutic efficacy and speed of kill of 7, administered orally at a point dose of 20 mg/kg bodyweight, was evaluated against adult cat flea (Ctenocephalides felis) infestations on dogs. […]

[4] = system: cat flea (Ctenocephalides felis); assay: Residual efficacy against adult cat flea infestations on dogs, oral; format: in vivo; details: Table 6, oral capsule 25 mg/kg, Day 32
Protocol: as §1, §2, §3

[5] = system: adult American dog tick (Dermacentor variabilis); assay: Therapeutic (knockdown) and residual efficacy against adult American dog tick infestations on dogs, oral; format: in vivo; details: for Geometric mean group live parasite counts / % efficacy: Table 6, oral capsule 25 mg/kg
Protocol: as §4, §5, §2
The therapeutic (knockdown) and residual efficacy of S-enantiomer, 9, administered orally at a point dose of 25 mg/kg bodyweight, was evaluated against adult tick (Dermacentor variabilis and Rhipicephalus sanguineus) and adult cat flea (Ctenocephalides felis) infestations on dogs. […]

[6] = system: American dog tick (Dermacentor variabilis) nymphs; assay: Efficacy against nymphal-stage American dog ticks on rats, oral; format: in vivo; details: fipronil positive control, oral 10 mg/kg bodyweight, all studies
Protocol: Evaluations were conducted using a modified version of the assay as described in Gutierrez et al., J. Med. Entomol. 43(3): 526-532 (2006). This assay may be modified by simply using different tick species (the reference describes Amblyomma americanum ticks), such as Dermacentor variabilis or Rhipicephalus sanguineus ticks, as well as different life-stages (larval, nymphal or adult). Further, the reference describes using topical application methods, but oral, transdermal and subcutaneous injection routes of administration may be used.
In these studies, adult male or female rats, approximately 300 grams in size, were randomly assigned to a treatment group or a control (untreated negative control or fipronil positive control) group. Each group consisted of three (3) to five (5) rats. […] On Day 2, approximately forty-eight (48) hours after treatment, live and dead ticks were removed from animals and counted.
Live tick counts were transformed using the natural logarithm transformation plus one (Ln count+1); addition of one to each count served to adjust for counts that were zero. […] GM percent efficacy of treatments was calculated using the following formula:
Enantiomers were evaluated for activity against American dog tick (Dermacentor variabilis) nymphs on rats. […] On Day 2, approximately forty-eight (48) hours after treatment, live and dead ticks were removed from animals and counted. […]

| Structure (SMILES) | Geometric mean group live parasite counts [1] | mortality at 300 µM [2] [%] | tolerability [3] | Geometric mean group live parasite counts [4] | continued residual efficacy ([5]; Example 10, oral capsule 25 mg/kg, through Day 21) [%] | Geometric mean group live parasite counts ([5]; Day 1) | % efficacy ([5]; Day 2) | Geometric mean group live parasite counts ([5]; Day 2) | % efficacy ([5]; Day 7) | Geometric mean group live parasite counts ([5]; Day 7) | % efficacy ([5]; Day 14) | Geometric mean group live parasite counts ([5]; Day 14) | % efficacy ([5]; Day 21) | Geometric mean group live parasite counts ([5]; Day 21) | Geometric mean group live parasite counts ([5]; Day 30) | efficacy (% reduction in live tick counts) [6] [%] |
| --- | --- | --- | --- | --- | --- | --- | --- | --- | --- | --- | --- | --- | --- | --- | --- | --- |
| Cc1cc(C2=NO[C@@](c3cc(Cl)c(Cl)c(Cl)c3)(C(F)(F)F)C2)ccc1C(=O)NCc1ccc2c(c1)B(O)OC2(C)C [Compound 9, (S)—N-((1-hydroxy-3,3-dimethyl-1,3-dihydrobenzo[c][1,2]oxaborol-6-yl)methyl)-2-methyl-4-(5-(3,4,5-trichlorophenyl)-5-(trifluoromethyl)-4,5-dihydroisoxazol-3-yl)benzamide] | 0.5 | ≥ 80 | well tolerated | 0.9 | 100 | 0.0 | (100) % | 0.0 | (100) % | 0.0 | (100) % | 0.0 | (100) % | 0.0 | 1.1 | – |
| N#Cc1nn(-c2c(Cl)cc(C(F)(F)F)cc2Cl)c(N)c1[S+]([O-])C(F)(F)F (stereo not shown) [Fipronil, fipronil, reference compound] | – | – | – | – | – | – | – | – | – | – | – | – | – | – | – | > 95 |
